Tests used:
Assay type in all cases: cell-based, human
A549 cells [1] = assay: MTT assay, cell viability; details: Homo sapiens, 24 hr treatment
Procedure: (§1) A549 (lung cancer cell line, non-resistance) and Anti-Dox-A549 (lung cancer cell line with resistance to Doxorubicin) were maintained in DMEM supplemented with 10% fetal bovine serum (FBS, Gibco), pH 7.4, 37° C. and with continuous circulation of 5% CO2. The medium was changed every 2 days and the cells were trypsinized with trypsin/EDTA when reaching 80%-90% confluence.
(§2) A549 and Anti-Dox-A549 were treated by the following treatment (Table 1) for 24 or 48 hr for examining the effects of HCD, PG, and Dox on their viability.
(§3) Dox1is referred as Dox of 1 μM; Dox2.5 is referred as Dox of 2.5 μM; Dox5 is referred as Dox of 5 μM; Dox10 is referred as Dox of 10 μM; Dox100 is referred as Dox of 100 μM. HCD2.5 is referred as HCD of 2.5 μM; HCD10 is referred as HCD of 10 μM; HCD25 is referred as HCD of 25 μM; HCD50 is referred as HCD of 50 μM. PG2.5 is referred as PG of 2.5 μM; PG5 is referred as PG of 5 μM; PG10 is referred as PG of 10 μM; PG20 is referred as PG of 20 μM.
(§4) In this example, the effects of HCD, PG, and Dox on the viability of A549 and anti-Dox-A549 were examined. The MTT assay was employed for this purpose. The MTT (3-(4-,5-dimethylthiazol-2-yl)-2,5-diphenyltetrazolium bromide) assay is a common colorimetric method in the field for cell viability analysis. MTT (yellow tetrazolium salt) is reduced to a purple formazan by living cells and detection to the purple formazan can be calculated as the cell viability.
(§5) Briefly, cells (A549 or Anti-Dox-A549) were seeded in 96-well plate (7×10^3 cell per well) and incubated overnight (37° C., 5% CO2).

Anti-Dox-A549 cells [2] = assay: MTT assay, cell viability; details: Homo sapiens, 24 hr treatment
Procedure: as §1, §2, §3, §4, §5

A549 cells [3] = assay: Cell cycle analysis by flow cytometer (PI staining); details: for G0/G1 (%) / G2/M (%) / S (%) / Sub G1 (%): 24 hr, Table 7 (head prints Anti-Dox-A549; b90: A549 cells)
Procedure: (§6) The results of Example 2 in cell viability hinted the effects of HCD, PG, and Dox on arresting cell cycle. In this example, the phase of cell cycle of A549 cells and Anti-Dox-A549 cells after the treatment listed in Table 1 was determined by flow cytometer. Briefly, 7×10^4 cells per well were to inoculated in 12-wells plate and incubated overnight at 37° C., 5% CO2. Then, cells were treated according to the treatment listed in Table 1 by indicated time period. After treatment, cells were harvested by trypsin and fixed with 70% ethanol at −20° C. for at least 3 hr. The cells were washed in cold PBS twice and then incubated with 1 ml (v/v) staining solution (20 μg/m1 propidium iodide (PI), 0.1% Triton X-100, 0.2 mg/ml Rnase) at 37° C. for 30 minutes. Lastly, cells were analyzed by flow cytometer (Cytomics™ FC500, Backman, Fullerton, Calif., USA). Data from 10,000 cells were collected for each experimental group.

Anti-Dox-A549 cells [4] = assay: as above; details: for G0/G1 (%) / G2/M (%) / S (%) / Sub G1 (%): 24 hr, Anti-Dox-A549 (Table 6)
Procedure: as §6

Compound: COc1cccc2c1C(=O)c1c(O)c3c(c(O)c1C2=O)C[C@@](O)(C(=O)CO)C[C@@H]3O[C@H]1C[C@H](N)[C@H](O)[C@H](C)O1 [Dox, Doxorubicin]
- IC50 (A549 cells [1]): 5 to 10 µM
- IC50 (Anti-Dox-A549 cells [2]): ~100 µM
- cell cycle effect (A549 cells [3]; A549 cells, Dox 5, 10, or 20 μM (Table 7)): increased at Sub G1 phase and showed cell arrest at sub G1 phase
- G0/G1 (%) (A549 cells [3]; Dox 5 μM): 50.3 ± 0.9 %
- G2/M (%) (A549 cells [3]; Dox 5 μM): 15.2 ± 1.6 %
- S (%) (A549 cells [3]; Dox 5 μM): 23.5 ± 0.7 %
- Sub G1 (%) (A549 cells [3]; Dox 5 μM): 5.8 ± 0.5 %
- G0/G1 (%) (A549 cells [3]; Dox 10 μM): 50.2 ± 1.4 %
- G2/M (%) (A549 cells [3]; Dox 10 μM): 17 ± 0.3 %
- S (%) (A549 cells [3]; Dox 10 μM): 20.3 ± 0.9 %
- Sub G1 (%) (A549 cells [3]; Dox 10 μM): 7.4 ± 2.3 %
- G0/G1 (%) (A549 cells [3]; Dox 20 μM): 37.3 ± 2.1 %
- G2/M (%) (A549 cells [3]; Dox 20 μM): 21.5 ± 1.6%
- S (%) (A549 cells [3]; Dox 20 μM): 23.5 ± 0.7 %
- Sub G1 (%) (A549 cells [3]; Dox 20 μM): 9.0 ± 0.8 %
- cell cycle effect (Anti-Dox-A549 cells [4]; Anti-Dox-A549 cells, Dox 5, 10, or 20 μM (Table 6)): increased at Sub G1 phase and showed cell arrest at S phase
- G0/G1 (%) (Anti-Dox-A549 cells [4]; Dox 5 μM): 54.7 ± 1.3 %
- G2/M (%) (Anti-Dox-A549 cells [4]; Dox 5 μM): 9.9 ± 0.7 %
- S (%) (Anti-Dox-A549 cells [4]; Dox 5 μM): 24.1 ± 0.5 %
- Sub G1 (%) (Anti-Dox-A549 cells [4]; Dox 5 μM): 6.4 ± 0.6 %
- G0/G1 (%) (Anti-Dox-A549 cells [4]; Dox 10 μM): 62.8 ± 0.6%
- G2/M (%) (Anti-Dox-A549 cells [4]; Dox 10 μM): 9.4 ± 0.9 %
- S (%) (Anti-Dox-A549 cells [4]; Dox 10 μM): 19.9 ± 0.1 %
- Sub G1 (%) (Anti-Dox-A549 cells [4]; Dox 10 μM): 4.6 ± 0.3 %
- G0/G1 (%) (Anti-Dox-A549 cells [4]; Dox 20 μM): 58.1 ± 3.4%
- G2/M (%) (Anti-Dox-A549 cells [4]; Dox 20 μM): 12.4 ± 1.5%
- S (%) (Anti-Dox-A549 cells [4]; Dox 20 μM): 18.7 ± 0.4 %
- Sub G1 (%) (Anti-Dox-A549 cells [4]; Dox 20 μM): 6.2 ± 0.6 %
